Experimental data published in patent US9381193B2, “Contraceptive methods and compositions” (WASHINGTON UNIVERSITY, priority 2011, dated 2016).

Tests used:
ESC-T cells [1] = assay: In vitro decidualization of immortalized human ESC-T cells (decidualization marker mRNA, morphology); assay type: cell-based; parameters: Lowering of PRL and IGFBP1 mRNA expression vs differentiation media only / Morphological change during decidualization: dose or concentration left out as unconfirmed
Source text: Decidualization in human cells was monitored by measuring the mRNA expression of two decidualization markers, PRL and IGFBP1.
This NADP+ analog inhibits two enzymes in the PPP, G6PD and 6GPDH, which utilize NADP+ and convert it into NADPH.
Two major results of the PPP are the production of ribose 5-phosphate and regeneration of NADPH. Production of ribose 5-phosphate is a central component in the de novo synthesis of ribonucleosides (RNs) and deoxyribonucleosides (DRNs). […] To address this question, ESC-T cultures were used and the differentiation media was supplemented with RNs and DRNs during treatment with PPP inhibitors.
Endometrial tissue was obtained from human uteri after hysterectomy conducted for benign disease or from endometrial biopsies. Informed consent was obtained from each patient before surgery and protocols were approved by the Human Research Protection Office of Washington University (HRPO#07-0949). Tissues were placed in HBSS and transported to the laboratory. hESCs were isolated and cultured as previously described. In vitro decidualization was performed as previously described with several changes. Cells were seeded in 6-well plates at 2×10^5 cells/well in DMEM:F12 without phenol red, supplemented with 2% heat-inactivated charcoal dextran-stripped calf serum (HyClone) and 50 μg/ml penicillin/streptomycin (Cambrex Bio Science). Cells were treated with 1 μM medroxyprogesterone-17-acetate (MPA) (Sigma) and 0.5 mM N^6, 2′-O-Dibutyryladenosine 3′,5′-cyclic monophosphate sodium salt (db-cAMP) (Sigma). Control samples received 0.1% ethanol vehicle control.
Human immortalized ESC (ESC telomerase immortalized, ESC-T), were decidualized in vitro in the presence of 0, 2.5 or 5 mM GlcN for 9 days.

human primary ESCs = assay: In vitro decidualization of human primary ESCs (decidualization marker mRNA); assay type: cell-based; conditions: 9 days in decidualization media
Source text: In order to confirm that this is not a side effect of ESC immortalization with telomerase overexpression in this human cell line, the effect of DHEA on decidualization of primary ESC cultures from mouse and human uteri was also investigated. Murine ESCs were isolated from the gravid uterus at 4 days post coitus and cultured in vitro for 3 days to induce decidualization as described in the Methods. […] The human primary ESCs were isolated from uteri following hysterectomy for benign disease as outlined in the Methods and cultured in decidualization media for 9 days.
Control samples received 0.1% ethanol vehicle control.

ESC-T cells [2] = assay: EdU incorporation proliferation assay; assay type: cell-based, human
Source text: Other groups have shown that DHEA has anti-proliferative effects in a number of cell-lines and tissues. Thus, it was hypothesized that perhaps the PPP inhibitors prevent the proliferation of ESC-Ts and that this is an additional effect, independent of their role in decidualization inhibition. In a human uterus the stromal cells go through a cyclical oscillation between proliferation and differentiation, determined by the hormonal milieu. ESC-Ts in vitro remain in the proliferative state until they are exposed to differentiation media, which causes the cells to halt cell division and enter differentiation. Proliferation of ESC-T cells were monitored by EdU incorporation in vitro, which indicates entry into the S-phase of the cell cycle, in the absence of the differentiation hormones.
Following 60 hr of the treatment indicated in the experiment, EdU was added to the culture medium at a concentration of […]. Cells were harvested and stained using the Click-iT EdU Flow Cytometry Kit (Invitrogen). Quantitative data were collected using a BD FACSCalibur flow cytometer (Becton Dickinson, San Jose, Calif.) and analyzed with FlowJo software (TreeSTar, Inc., Ashland, Oreg.). For confocal microscopy, the cells were stained on coverslips using the same protocol. Nuclei were counterstained with TOPRO-iodide (Molecular probes) at a 1:500 dilution. Cells were mounted on slides using Vectashield (Vector Labs) and visualized using a Nikon C1 microscope.

FVB/NJ mice [3] = assay: Ovarian histology and follicle counts in DHEA-fed mice; assay type: in vivo, mouse; conditions: 0.6% DHEA diet
Source text: (§1) Female FVB/NJ mice were obtained from Jackson Laboratories (Bar Harbor, Me., USA). Regular rodent chow was supplemented with DHEA at 0.01%, 0.1% and 0.6% w/w. Three-week-old mice had access to food and water ad libitum. Mice were fed control or DHEA-supplemented chow for two weeks. The Animal Studies Committee at Washington University School of Medicine reviewed and approved all animal experiments. Animals were maintained according to the Guide for the Care and Use of Laboratory Animals provided by the Institute for Laboratory Animal Research.
For histological evaluation, one ovary from five mice in each group was fixed in Bouin's solution, transferred to 70% ethanol then embedded in paraffin and serial sectioned at 10 microns. Every tenth section was kept and stained with hematoxylin and eosin. Follicles with visible nuclei were classified as primordial, primary, secondary or antral. Corpora lutea were also counted. Follicle counts from each classification were summed for each mouse.

FVB/NJ mice [4] = assay: Estrous cycles by vaginal smears in DHEA-fed mice; assay type: in vivo, mouse
Description: (§2) To determine the reversibility of DHEA, mice were fed the two higher DHEA diets that prevented normal estrous cycles for two weeks followed by regular rodent chow for two weeks. Estrous cycles and pregnancy rates were recorded.
as §1
Vaginal smears were performed daily starting at eight weeks of age, after puberty, and establishment of regular estrous cycles. Vaginal cells were collected in 10 μl of phosphate buffered saline (PBS) and evaluated for stage of estrous by one investigator by light microscopy.

FVB/NJ mice [5] = assay: Pregnancy rates / litters of DHEA-fed mice; assay type: in vivo, mouse
Description: as §2, §1
Control and DHEA-fed mice were mated with males of known fertility until three litters were delivered or up to 12 weeks.

FVB/NJ mice [6] = assay: Ovulation rate after PMSG and hCG in DHEA-fed mice; assay type: in vivo, mouse
Source text: as §1
COCs were collected following superovulation with PMSG. Ovaries were removed and placed in M2 media (Sigma, St. Louis, Mo., USA). COCs were obtained by rupture of antral follicles with a syringe and needle. To collect denuded germinal vesicle (GV) oocytes, the cumulus cells were removed by gentle pipetting. The oviducts were removed from PMSG- and hCG-primed mice. The ampulla of the oviduct was punctured to release the clutch of ovulated oocytes 24 hr after hCG.

embryos = assay: Transfer of blastocysts cultured in DHEA to pseudopregnant females; assay type: in vivo, mouse
Description: Mice were superovulated and mated with males of known fertility. Forty-five hours after injection with hCG, the oviducts were removed. Two-cell embryos were collected by flushing the oviducts with human tubal fluid media (HTF) with 0.25% BSA. Embryos were cultured in HTF with BSA and either DMSO, 10 μM DHEA or 100 μM DHEA for 72 hours. In vitro cultured blastocysts were transferred to 2.5 days postcoitus (dpc) pseudopregnant ICR females. Resulting embryos and placentas were collected at 14.5 dpc and fixed with Bouin's solution, embedded in paraffin and sectioned.

## C[C@]12CC[C@H](O)CC1=CC[C@@H]1[C@@H]2CC[C@]2(C)C(=O)CC[C@@H]12 [DHEA, dehydroepiandrosterone]
ESC-T cells [1]; 100 μM DHEA, day 4
  PRL and IGFBP1 decidualization markers: drastic decrease
ESC-T cells [1]; DHEA
  Morphological change during decidualization: the morphological progression is halted
ESC-T cells [1]; DHEA, day 3 of in vitro culture
  Lowering of PRL and IGFBP1 mRNA expression vs differentiation media only: 5 fold
Human primary ESCs
  Expression of PRL and IGFBP1: decreased in a concentration dependent manner
ESC-T cells [2]; 100 μM DHEA, 50 μM 6AN
  EdU-positive nuclei vs DMSO control: drastic decrease
ESC-T cells [2]; 4 independent experiments
  Proliferation by EdU geometric mean fluorescence intensity (flow cytometry): decreases proliferation of ESC-Ts in a concentration dependent manner
FVB/NJ mice [3]
  Ovarian morphology: large cystic structures
FVB/NJ mice [4]; 0.01% DHEA diet, after two weeks
  Estrous cycle length: approximately five days longer than controls
FVB/NJ mice [4]; 0.1% DHEA and 0.6% DHEA diet
  Estrous cycle stage: remained in metestrus or diestrus for the entire evaluation period
FVB/NJ mice [5]; 0.01% DHEA diet
  Litters while on diet: the litters were smaller than the controls
FVB/NJ mice [5]; 0.1% and 0.6% DHEA diet
  Litters while on diet: did not deliver any pups
FVB/NJ mice [6]; 0.01% DHEA diet
  Number of ovulated oocytes: 10.8±2.8
FVB/NJ mice [6]; 0.1% DHEA diet
  Number of ovulated oocytes: 15±1.9
FVB/NJ mice [6]; 0.6% DHEA diet
  Number of ovulated oocytes: 7.1±1.4
embryos
  Anomalies in the fetuses or abnormal placental histology: did not lead to increased anomalies
  Fetus size at 14.5 dpc: significantly smaller fetuses
embryos; p=0.054
  Placenta size at 14.5 dpc: smaller placentas
